Assay results published in paper PMC12123458, “Unraveling Small Molecule-Mediated Sirtuin 3 Activation at a Distinct Binding Site for Cardioprotective Therapies” (ACS Central Science, 2025).

Tests used:
SIRT3 [1] = target: T1, SIRT3 (Homo sapiens, UniProt Q9NTG7); experiment: Fluor de Lys (FDL) fluorimetric SIRT3 deacetylase activity assay; assay type: biochemical
T1 construct: purchased Enzo Life Sciences BML-AK557-0001
T1 sequence (Q9NTG7 1-399): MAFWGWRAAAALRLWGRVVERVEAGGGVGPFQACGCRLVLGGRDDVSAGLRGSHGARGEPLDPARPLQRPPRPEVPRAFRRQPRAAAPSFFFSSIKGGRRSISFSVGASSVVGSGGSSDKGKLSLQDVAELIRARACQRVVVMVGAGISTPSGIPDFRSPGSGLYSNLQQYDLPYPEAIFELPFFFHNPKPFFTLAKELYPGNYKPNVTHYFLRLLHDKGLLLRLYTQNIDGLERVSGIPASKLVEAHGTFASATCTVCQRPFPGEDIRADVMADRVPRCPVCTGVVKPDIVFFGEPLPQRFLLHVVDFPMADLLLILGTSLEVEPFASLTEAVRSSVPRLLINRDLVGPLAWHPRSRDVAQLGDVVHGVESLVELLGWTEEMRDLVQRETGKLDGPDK
Protocol: The SIRT3 activity was assessed using the Enzo Life Sciences kit (BML-AK557-0001) per the protocol provided. A 10 μM fluoro-acetylated p53 peptide and 500 μM NAD^+ were added to SIRT3 assay buffer, incubated with test compounds and 0.5 μg recombinant SIRT3 at 37 °C for 30 min. In the mass spectrometry (MS) assay, 5 μM hSirt3 was reacted with 0.25 mM peptide and 1.25 mM NAD^+, with or without 10 μM SKLB-11A in 2% DMSO, at 37 °C. Controls included 2% DMSO without SKLB-11A. The reaction was halted at defined intervals using 5 mM nicotinamide, and the mixture then underwent filtration and subjected to nano LC-MS/MS analysis. Acetylated Peptide: MnSOD-K122 ([…]-Ac).

SIRT5 = target: T2, SIRT5 (Homo sapiens, UniProt Q9NXA8); experiment: SPR binding to SIRT5
T2 sequence (Q9NXA8 37-310): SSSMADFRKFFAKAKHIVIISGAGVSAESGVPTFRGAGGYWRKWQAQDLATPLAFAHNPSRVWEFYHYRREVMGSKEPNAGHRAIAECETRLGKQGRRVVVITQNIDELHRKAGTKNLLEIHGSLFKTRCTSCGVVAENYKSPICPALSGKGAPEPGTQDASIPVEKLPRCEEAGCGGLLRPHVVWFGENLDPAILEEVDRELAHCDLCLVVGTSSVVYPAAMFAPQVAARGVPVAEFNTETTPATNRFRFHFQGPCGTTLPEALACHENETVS
Protocol: The affinity of SKLB-11A for SIRT1, SIRT2, SIRT3, SIRT5, and SIRT6 was determined using a Reichert 4SPR system (Reichert Technologies, Depew, NY, USA). Proteins at 200 μg/mL were immobilized on a dextran-coated sensor chip (13206066) until reaching ≥12,000 response units (RUs). A dual-flow channel setup was used, reserving one channel for blank controls. SKLB-11A was introduced at varying concentrations for binding and subsequent dissociation kinetic analysis. Data acquisition was at 25 °C utilizing a PBST running buffer (pH 7.4). The equilibrium dissociation constant (K d) was computed from steady-state affinity measurements using TraceDrawer software.

H9c2 cells [2] = experiment: ATP content in Dox-treated H9c2 cells; assay type: cell-based; details: 10 μM
Protocol: ATP concentrations were detected by a firefly luciferin/luciferase-based ATP bioluminescence assay kit (Beyotime, China). The ATP contents were determined as nmol/mg protein by using SYNERGY 4 Microplate Reader (BioTek Instruments).

SIRT3 [3] = target: T3, SIRT3 (Rattus norvegicus, UniProt A0A8I5XWT5); experiment: CETSA of SIRT3 in H9c2 cells; assay type: cell-based; details: 10 μM, 6 h
T3 construct: endogenous in cells; host or cells: H9c2
T3 sequence (A0A8I5XWT5 1-347): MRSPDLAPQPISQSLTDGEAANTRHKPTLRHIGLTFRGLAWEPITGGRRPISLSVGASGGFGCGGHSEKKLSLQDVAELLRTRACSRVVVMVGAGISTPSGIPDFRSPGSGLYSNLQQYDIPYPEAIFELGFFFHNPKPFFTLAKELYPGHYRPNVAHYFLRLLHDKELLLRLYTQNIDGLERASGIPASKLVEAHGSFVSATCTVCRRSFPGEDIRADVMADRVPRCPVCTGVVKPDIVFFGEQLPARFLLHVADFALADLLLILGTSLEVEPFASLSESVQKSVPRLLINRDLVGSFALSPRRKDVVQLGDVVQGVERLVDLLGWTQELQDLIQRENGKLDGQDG
Protocol: The Cellular Thermal Shift Assay (CETSA) leverages the principle of thermal stabilization of proteins upon ligand binding. H9c2 cells were seeded on 100 mm culture dishes and allowed to adhere for 12 h. Following attachment, cells were treated with SKLB-11A (10 μM) for 6 h, after which they were enzymatically detached using trypsin and harvested. The cell suspension was partitioned into seven equal aliquots, which were then exposed to a range of thermal conditions (37, 41, 45, 49, 53, 57, and 61 °C) for 3 min each. Post-thermal treatment, rapid freezing in liquid nitrogen was performed thrice to ensure cell lysis. The lysates were then subjected to centrifugation at 12,000 rpm for 20 min, and the levels of SIRT3 were analyzed via Western blotting.

wild-type SIRT3 = target: T4, wild-type SIRT3 (Homo sapiens, UniProt Q9NTG7); experiment: BLI binding of SKLB-11A to wild-type SIRT3; details: read-out: dissociation constant, wild-type SIRT3
T4 sequence (Q9NTG7 1-399): T1 sequence (Q9NTG7 1-399)
Protocol: Binding kinetics of SIRT3 with various compounds were quantified using SSA biosensors on an Octet Red96 system (ForteBio). The assays occurred in 96-well plates, recording wavelength shifts in real-time. Ambient temperature was maintained at 25 °C, with plate agitation at 1000 rpm, and a reaction volume of 200 μL per well. SIRT3 protein and test compounds were prepared in phosphate-buffered saline (PBS, pH 7.4). Biosensors were equilibrated in PBS for 10 min before immobilizing SIRT3 (0.9 μg/mL) for 180 s, followed by a 120-s PBS wash. […] Data analysis was performed using ForteBio’s Octet RED software.

H9c2 cells [4] = experiment: Intracellular ROS (DCFH-DA) and mitochondrial membrane potential (JC-1) in Dox-treated H9c2 cells; assay type: cell-based
Protocol: Mitochondrial membrane potential and reactive oxygen species (ROS) levels within cells were assessed using the JC-1 Mitochondrial Membrane Potential Assay Kit (Beyotime, Beijing, China) and the DCFH-DA probe (Beyotime, Shanghai, China), respectively, following the manufacturer’s guidelines. , For mitochondrial membrane potential quantification, cells were treated with JC-1 solution and incubated for 20 min at 37 °C in the dark. ROS quantification involved a 25 min incubation at 37 °C in the dark with DCFH-DA solution. Postincubation, cells underwent three gentle washes with prewarmed buffer. Visualization was achieved using a Nikon (Ni-E) fluorescence microscope and quantified by flow cytometry (BD FACS Calibur).

## COC(=O)c1c(N)n(Cc2ccc(F)cc2)c2nc3ccccc3nc12 [SKLB-11A, Methyl 2-amino-1-(4-fluorobenzyl)-1H-pyrrolo[2,3-b]quinoxaline-3-carboxylate]
SIRT3 [1]; 100 µM, FDL deacetylation assay, compared to the control group, mean ± SD
  % effect @ 100 µM of SIRT3: maintained or enhanced the activity
SIRT3 [1]; 0.5 h, 100 µM, FDL deacetylation assay, compared to the control group, mean ± SD, read-out: % effect @ 100 µM of SIRT3
  activity at 100 µM: 188.1 ± 1.58%
SIRT3 [1]; FDL assay
  SIRT3 activation compared with other SIRT3 activators: better SIRT3 activation
SIRT3 [1]; FDL assay, read-out: EC50, SIRT3 deacetylation activity
  EC50: 22 ± 1.57 µM
SIRT5
  binding to SIRT5: no binding
H9c2 cells [2]
  ATP levels: capable of increasing ATP levels
SIRT3 [3]
  thermal stability of SIRT3 (CETSA): effectively binds to SIRT3
wild-type SIRT3
  Kd: 33.1 µM
H9c2 cells [4]; JC-1
  Dox-induced dissipation of mitochondrial membrane potential (MMP): notably preserved
H9c2 cells [4]; pretreatment, DCFH-DA
  Dox-induced increase of ROS levels: effectively suppressed this increase
